# Biological target: T1, Human complement C1s enzyme (Homo sapiens, UniProt P09871)
# T1 construct: purified from human serum, Complement Technology, Inc; purchased Complement Technology, Inc; host or cells: human serum (plasma-derived native protein)
# T1 sequence (P09871 438-688 limits assumed): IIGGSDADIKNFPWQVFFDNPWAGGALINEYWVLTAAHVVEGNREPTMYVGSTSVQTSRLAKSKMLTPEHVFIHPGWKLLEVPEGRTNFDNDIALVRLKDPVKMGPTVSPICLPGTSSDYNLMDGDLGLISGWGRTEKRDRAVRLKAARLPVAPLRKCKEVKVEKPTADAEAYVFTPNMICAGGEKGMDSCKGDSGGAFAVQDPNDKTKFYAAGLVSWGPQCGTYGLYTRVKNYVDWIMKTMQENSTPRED
# T1 sequence (P09871 16-437 partner limits assumed): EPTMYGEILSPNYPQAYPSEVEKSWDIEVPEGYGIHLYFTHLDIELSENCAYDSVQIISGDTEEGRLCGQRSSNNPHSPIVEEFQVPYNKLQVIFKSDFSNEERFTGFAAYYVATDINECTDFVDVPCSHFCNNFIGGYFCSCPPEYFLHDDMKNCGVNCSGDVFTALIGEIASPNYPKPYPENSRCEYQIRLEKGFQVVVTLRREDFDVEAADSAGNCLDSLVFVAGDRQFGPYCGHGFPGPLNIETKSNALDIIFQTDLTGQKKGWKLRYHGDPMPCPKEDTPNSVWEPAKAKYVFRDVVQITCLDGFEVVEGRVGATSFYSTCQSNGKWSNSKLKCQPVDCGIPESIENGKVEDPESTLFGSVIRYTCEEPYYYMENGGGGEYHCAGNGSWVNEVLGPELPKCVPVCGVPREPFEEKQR
# Assay: Human C1s enzyme assay
# Format: biochemical
# Conditions: human complement C1s enzyme 1.16 nM, substrate Z-L-Lys-SBzl, A405; read-out: IC50 (Stars)
# How it was run: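 Thioesterase activity followed colorimetrically (DTNB, A405, 30-s reads) using 100 μM Z-L-Lys-SBzl substrate. Enzyme, human serum-derived C1s at 1.16 nM final, was incubated with test compound for 5 min, room temperature, pH 7.5 Tris buffer with 1 M NaCl. Rate-versus-concentration data fitted by nonlinear regression for IC50.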
row,Compound,IC50
1,"O=C(CN1C(=O)[C@@H](NCCCc2ccccc2)CC[C@H]1c1ccccc1)NCc1cc2cnccc2[nH]1 (relative stereo) [Compound 489, N-((1H-Pyrrolo[3,2-c]pyridine-2-yl)methyl)-2-((3S*,6S*)-2-oxo-6-phenyl-3-((3-phenylpropyl)amino)piperidin-1-yl)acetamide]",> 1000 nM
2,"C[C@@H](Nc1cnc(-c2ccc(=O)n(C)c2)n(CC(=O)NCc2cc3cnccc3[nH]2)c1=O)c1ccc2oc3ccccc3c2c1 [Compound 290, (R)-N-((1H-pyrrolo[3,2-c]pyr-idin-2-yl)methyl)-2-(5-((1-(dibenzo[b,d]furan-2-yl)ethyl)-amino)-2-(1-methyl-6-oxo-1,6-dihydropyridin-3-yl)-6-oxopyr-imidin-1(6H)-yl)acetamide]",100 to 1000 nM
3,"O=C(Cn1c(-c2ccccc2)ncc(NCCCc2ccccc2)c1=O)N[C@@H](CO)c1cc2cnccc2[nH]1 [Compound 16, (R)-N-(2-hydroxy-1-(1H-pyr-rolo[3,2-c]pyridin-2-yl)ethyl)-2-(6-oxo-2-phenyl-5-((3-phen-ylpropyl)amino)pyrimidin-1(6H)-yl)acetamide]",> 1000 nM
4,"C[C@H](Nc1cnc(N2CCOCC2)n(CC(=O)NCc2cc3cnccc3[nH]2)c1=O)c1ccc2oc3ccccc3c2c1 [Compound 295, (S)-N-((1H-pyrrolo[3,2-c]pyr-idin-2-yl)methyl)-2-(5-((1-(dibenzo[b,d]furan-2-yl)ethyl)-amino)-2-morpholino-6-oxo-pyrimidin-1(6H)-yl)acetamide]",< 100 nM
5,"O=C(Cn1c(-c2ccccc2)ncc(NCCCc2ccc(C3(F)COC3)cc2)c1=O)NCc1cc2cnccc2[nH]1 [Compound 116, N-((1H-pyrrolo[3,2-c]pyridine-2-yl)methyl)-2-(5-((3-(4-(3-fluorooxetan-3-yl)phenyl)propyl)amino)-6-oxo-2-phenylpyrimidin-1(6H)-yl)acetamide]",< 100 nM
6,"O=C(Cn1c(-c2ccccc2)cnc(NCc2ccc(Oc3ccccc3)cc2)c1=O)NCc1cc2cnccc2[nH]1 [Compound 63, N-((1H-pyrrolo[3,2-c]pyridine-2-yl)methyl)-2-(2-oxo-3-((4-phenoxybenzyl)amino)-6-phenylpyrazin-1(2H)-yl)acetamide]",< 100 nM
7,"O=C(Cn1c(-c2ccccc2)ncc(Br)c1=O)NCc1cc2cnccc2[nH]1 [Compound 71, N-((1H-pyrrolo[3,2-c]pyridin-2-yl)methyl)-2-(5-bromo-6-oxo-2-phenylpyrimidin-1(6H)-yl)acetamide]",100 to 1000 nM
8,"C[C@@H](Nc1cnc(-c2ccccc2)n(CC(=O)NCc2cc3cnccc3[nH]2)c1=O)c1ccc(-c2ccccc2)cc1 [Compound 275, (R)-N-((1H-pyrrolo[3,2-c]pyr-idin-2-yl)methyl)-2-(5-((1-([1,1′-biphenyl]-4-yl)ethyl)-amino)-6-oxo-2-phenylpyrimi-din-1(6H)-yl)acetamide]",< 100 nM
9,"C[C@@H](Nc1cnc(N2CCS(=O)(=O)CC2)n(CC(=O)NCc2cc3cnccc3[nH]2)c1=O)c1ccc2oc3ccccc3c2c1 [Compound 385, (R)-N-((1H-pyrrolo[3,2-c]pyridin-2-yl)methyl)-2-(5-((1-(dibenzo[b,d]furan-2-yl)ethyl)-amino)-2-(1,1-dioxidothio-morpholino)-6-oxopyrimidin-1(6H)-yl)acetamide]",> 1000 nM
10,"O=C(Cn1c(-c2ccccc2)ncc(NCc2ccc3oc4ccccc4c3c2)c1=O)NCc1cc2c(s1)CCNC2 [Compound 142, 2-(5-((dibenzo[b,d]furan-2-ylmethyl)amino)-6-oxo-2-phenylpyrimidin-1(6H)-yl)-N-((4,5,6,7-tetrahydrothieno[3,2-c]pyridine-2-yl)methyl)acetamide]",< 100 nM
11,"C[C@@H](Nc1cnc(N2CCCCC2)n(CC(=O)NCc2cc3cnccc3[nH]2)c1=O)c1ncc(-c2ccccc2)o1 [Compound 488, (R)-N-((1H-pyrrolo[3,2-c]pyridin-2-yl)methyl)-2-(6-oxo-5-((1-(5-phenyloxazol-2-yl)-ethyl)amino)-2-(piperidin-1-yl)pyrimidin-1(6H)-yl)acet-amide]",< 100 nM
12,"C[C@@H](Nc1cnc(C2CCCC2)n(CC(=O)NCc2cc3cnccc3[nH]2)c1=O)c1ccc2oc3ccccc3c2c1 [Compound 324, (R)-N-((1H-pyrrolo[3,2-c]pyr-idin-2-yl)methyl)-2-(2-cyclo-pentyl-5-((1-(dibenzo[b,d]furan-2-yl)ethyl)amino)-6-oxo-pyrimidin-1(6H)-yl)acetamide]",100 to 1000 nM
13,"C[C@@H](Nc1cnc(N2CCN(C)CC2)n(CC(=O)NCc2cc3cnccc3[nH]2)c1=O)c1ccc2oc3ccccc3c2c1 [Compound 389, (R)-N-((1H-pyrrolo[3,2-c]pyridin-2-yl)methyl)-2-(5-((1-(dibenzo[b,d]furan-2-yl)ethyl)-amino)-2-(4-methylpiperazin-1-yl)-6-oxopyrimidin-1(6H)-yl)acetamide]",< 100 nM
14,"O=C(Cn1c(-c2cn[nH]c2)ncc(NCc2ccc3oc4ccccc4c3c2)c1=O)NCc1cc2cnccc2[nH]1 [Compound 312, N-((1H-pyrrolo[3,2-c]pyridine-2-yl)methyl)-2-(5-((dibenzo[b,d]furan-2-ylmethyl)amino)-6-oxo-2-(1H-pyrazol-4-yl)pyrimidin-1(6H)-yl)acetamide]",< 100 nM

# Other lines, results leading:
row,IC50,Compound
1,< 100 nM,"O=C(Cn1c(-c2ccccc2)ncc(NC(=O)c2csc(-c3cccs3)n2)c1=O)NCc1cc2cnccc2[nH]1 [Compound 227, N-(1-(2-(((1H-pyrrolo[3,2-c]pyridin-2-yl)methyl)amino)-2-oxoethyl)-6-oxo-2-phenyl-1,6-dihydropyrimidin-5-yl)-2-(thiophen-2-yl)thiazole-4-carboxamide]"
2,< 100 nM,"O=C(Cn1c(-c2ccccc2F)ncc(N[C@H]2CCc3ccccc32)c1=O)NCc1cc2cnccc2[nH]1 [Compound 394, (S)—N-((1H-pyrrolo[3,2-c]pyridine-2-yl)methyl)-2-(5-((2,3-dihydro-1H-inden-1-yl)amino)-2-(2-fluorophenyl)-6-oxopyrimidin-1(6H)-yl)acetamide]"
3,< 100 nM,"O=C(Cn1c(-c2ccccc2)cnc(NC(=O)c2ccc(Oc3ccccc3)cc2)c1=O)NCc1cc2cnccc2[nH]1 [Compound 177, N-(4-(2-(((1H-pyrrolo[3,2-c]pyridin-2-yl)methyl)amino)-2-oxoethyl)-3-oxo-5-phenyl-3,4-dihydropyrazin-2-yl)-4-phen-oxybenzamide]"
4,< 100 nM,"O=C(Cn1c(-c2ccccc2)ncc(NCCCc2ccc(OC3COC3)cc2)c1=O)NCc1cc2cnccc2[nH]1 [Compound 103, N-((1H-pyrrolo[3,2-c]pyridine-2-yl)methyl)-2-(5-((3-(4-(oxetan-3-yl-oxy)phenyl)propyl)amino)-6-oxo-2-phenylpyrimidin-1(6H)-yl)acetamide]"
5,< 100 nM,"C[C@@H](Nc1ncc(C2CCOCC2)n(CC(=O)NCc2cc3cnccc3[nH]2)c1=O)c1ccc2oc3ccccc3c2c1 [Compound 471, (R)—N-((1H-Pyrrolo[3,2-c]pyridine-2-yl)methyl)-2-(3-((1-(dibenzo[b,d]furan-2-yl)ethyl)amino)-2-oxo-6-(tetrahydro-2H-pyran-4-yl)pyrazin-1(2H)-yl)acetamide]"
6,< 100 nM,"O=C(Cn1c(-c2ccccc2)ncc(NC(=O)c2ccc(-n3cccc3)cc2)c1=O)NCc1cc2cnccc2[nH]1 [Compound 59, N-(1-(2-(((1H-pyrrolo[3,2-c]pyridin-2-yl)methyl)amino)-2-oxoethyl)-6-oxo-2-phenyl-1,6-dihydropyrimidin-5-yl)-4-(1H-pyrrol-1-yl)benzamide]"
7,< 100 nM,"Cc1ncc(NC(=O)c2coc(-c3ccccc3)n2)c(=O)n1CC(=O)NCc1cc2cnccc2[nH]1 [Compound 414, N-(1-(2-(((1H-pyrrolo[3,2-c]pyridine-2-yl)methyl)amino)-2-oxoethyl)-2-methyl-6-oxo-1,6-dihydropyrimidin-5-yl)-2-phenyloxazole-4-carboxamide]"
8,< 100 nM,"C[C@@H](Nc1cnc(-c2cccc(F)c2)n(CC(=O)NCc2cc3cnccc3[nH]2)c1=O)c1ccc2oc3ccccc3c2c1 [Compound 229, (R)-N-((1H-pyrrolo[3,2-c]pyr-idin-2-yl)methyl)-2-(5-((1-(dibenzo[b,d]furan-2-yl)ethyl)-amino)-2-(3-fluorophenyl)-6-oxopyrimidin-1(6H)-yl)acet-amide]"
9,< 100 nM,"O=C(Cn1c(-c2ccccc2)ncc(NC(=O)c2cnc(-c3ccccc3)s2)c1=O)NCc1cc2cnccc2[nH]1 [Compound 106, N-(1-(2-(((1H-pyrrolo[3,2-c]pyridin-2-yl)methyl)amino)-2-oxoethyl)-6-oxo-2-phenyl-1,6-dihydropyrimidin-5-yl)-2-phenylthiazole-5-carboxamide]"
10,< 100 nM,"C[C@H](Nc1cnc(-c2ccncc2)n(CC(=O)NCc2cc3cnccc3[nH]2)c1=O)c1ccc2oc3ccccc3c2c1 [Compound 315, (S)-N-((1H-pyrrolo[3,2-c]pyridin-2-yl)methyl)-2-(5-((1-(dibenzo[b,d]furan-2-yl)ethyl)-amino)-6-oxo-2-(pyridin-4-yl)-pyrimidin-1(6H)-yl)acetamide]"
